According to PubChem BioAssay AID328 (DTP/NCI, 2004):
Where “and” joins values, the source holds several entries; their conditions need not be identical. Equal entries are not always repeated. Toxic doses and inconclusive results are not listed.

Test system: BDF1 mice, P388 leukemia ip, median survival T/C
Test: NCI In Vivo Anticancer Drug Screen. Data for tumor model P388 Leukemia (intraperitoneal) in B6D2F1 (BDF1) mice
Conditions: endpoint: median survival time, higher = longer survival
Summary of the method: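 Mice carrying the transplantable tumour receive compound or vehicle. Survival is followed in each arm, and the treated measure is divided by the vehicle measure.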

In the case of CCOC(=O)c1c[nH]c2ccc(N(CCCl)CCCl)cc12, the T/C (dose: 0.29 mg/kg/injection, schedule: Q01DX009 (ip), vehicle: saline with Tween-80) is reported as 101 % of control, the T/C (dose: 0.44 mg/kg/injection, schedule: Q01DX009 (ip), vehicle: saline with Tween-80) is reported as 101 % of control and the T/C (dose: 0.88 mg/kg/injection, schedule: Q01DX009 (ip), vehicle: saline with Tween-80) is reported as 152 % of control. For the same compound, the T/C (dose: 0.88 mg/kg/injection, schedule: Q04DX003 (ip), vehicle: saline with Tween-80) was 118 % of control, the T/C (dose: 1.32 mg/kg/injection, schedule: Q04DX003 (ip), vehicle: saline with Tween-80) was 122 % of control and the T/C (dose: 1.33 mg/kg/injection, schedule: Q01DX009 (ip), vehicle: saline with Tween-80) was 158 % of control. For the same compound, the T/C (dose: 2.0 mg/kg/injection, schedule: Q01DX009 (ip), vehicle: saline with Tween-80) was 177 % of control, the T/C (dose: 2.66 mg/kg/injection, schedule: Q01DX009 (ip), vehicle: saline with Tween-80) was 164 % of control and the T/C (dose: 3.0 mg/kg/injection, schedule: Q01DX009 (ip), vehicle: saline with Tween-80) was 186 % of control. The T/C (dose: 4.0 mg/kg/injection, schedule: Q01DX009 (ip), vehicle: saline with Tween-80) was 176 % of control, the T/C (dose: 5.0 mg/kg/injection, schedule: Q04DX003 (ip), vehicle: saline with Tween-80) was 158 % of control and the T/C (dose: 6.0 mg/kg/injection, schedule: Q01DX009 (ip), vehicle: saline with Tween-80) was 191 % of control. For the same compound, the T/C (dose: 7.5 mg/kg/injection, schedule: Q04DX003 (ip), vehicle: saline with Tween-80) was 166 % of control, the T/C (dose: 9.0 mg/kg/injection, schedule: Q01DX009 (ip), vehicle: saline with Tween-80) was 252 % of control and the T/C (dose: 12.5 mg/kg/injection, schedule: Q04DX003 (ip), vehicle: saline with Tween-80) was 190 % of control. The T/C (dose: 25.0 mg/kg/injection, schedule: Q04DX003 (ip), vehicle: saline with Tween-80) was 177 % of control and the T/C (dose: 50.0 mg/kg/injection, schedule: Q04DX003 (ip), vehicle: saline with Tween-80) was 218 % of control.

c1cc2c(c(CC3CO3)c1CC1CO1)OCCOCCOCCOCCO2 (configuration not stated) was tested, and the T/C (dose: 6.0 mg/kg/injection, schedule: Q01DX009 (ip), vehicle: saline + alcohol) was 98 % of control and 105 % of control, the T/C (dose: 12.0 mg/kg/injection, schedule: Q01DX009 (ip), vehicle: saline + alcohol) was 108 % of control and the T/C (dose: 24.0 mg/kg/injection, schedule: Q01DX009 (ip), vehicle: saline + alcohol) was 113 % of control.

With NC(=O)OCCI the T/C (dose: 50.0 mg/kg/injection, schedule: Q04DX003 (ip), vehicle: other) was 100 % of control, the T/C (dose: 100.0 mg/kg/injection, schedule: Q04DX003 (ip), vehicle: other) was 120 % of control and the T/C (dose: 132.0 mg/kg/injection, schedule: Q04DX003 (ip), vehicle: Klucel (hydroxypropylcellulose) (HPC)) was 150 % of control and 177 % of control. The T/C (dose: 200.0 mg/kg/injection, schedule: Q04DX003 (ip), vehicle: Klucel (hydroxypropylcellulose) (HPC)) was 90 % of control and the T/C (dose: 200.0 mg/kg/injection, schedule: Q04DX003 (ip), vehicle: other) was 155 % of control.

With O=C(Nc1ccc(S(=O)(=O)Nc2ccc(N=Nc3ccccc3)cc2)cc1)C(SC1=NC=NC2=NC=NC21)SC1=NC=NC2=NC=NC21 (configuration not stated) the T/C (dose: 100.0 mg/kg/injection, schedule: Q04DX003 (ip), vehicle: saline) was 95 % of control, the T/C (dose: 200.0 mg/kg/injection, schedule: Q04DX003 (ip), vehicle: saline) was 105 % of control and the T/C (dose: 400.0 mg/kg/injection, schedule: Q04DX003 (ip), vehicle: saline) was 115 % of control.

For COc1ccccc1Cc1c(OC)cc(OC)c(C(=O)CCc2ccccc2)c1O, the T/C (dose: 0.5 mg/kg/injection, schedule: Q01DX009 (ip), vehicle: saline) was 103 % of control and the T/C (dose: 1.0 mg/kg/injection, schedule: Q01DX009 (ip), vehicle: saline) was 106 % of control.

O=C=Nc1ccc(Cl)c(Cl)c1 (tested in a mixture with another compound) was tested, and the T/C (dose: 50.0 mg/kg/injection, schedule: Q01DX011 (ip), vehicle: Klucel (hydroxypropylcellulose) (HPC)) was 107 % of control, the T/C (dose: 100.0 mg/kg/injection, schedule: Q01DX011 (ip), vehicle: Klucel (hydroxypropylcellulose) (HPC)) was 109 % of control and the T/C (dose: 200.0 mg/kg/injection, schedule: Q01DX011 (ip), vehicle: Klucel (hydroxypropylcellulose) (HPC)) was 100 % of control. The T/C (dose: 400.0 mg/kg/injection, schedule: Q01DX011 (ip), vehicle: Klucel (hydroxypropylcellulose) (HPC)) was 102 % of control.

In the case of O=c1[nH]c2c(ccc3cccnc32)c2c1CCC2, the T/C (dose: 100.0 mg/kg/injection, schedule: Q04DX003 (ip), vehicle: saline with Tween-80) is reported as 92 % of control and the T/C (dose: 400.0 mg/kg/injection, schedule: Q04DX003 (ip), vehicle: saline with Tween-80) is reported as 93 % of control.

With Cn1cc(C=O)c2nccnc21 the T/C (dose: 0.78 mg/kg/injection, schedule: Q01DX009 (ip), vehicle: saline) was 92 % of control, the T/C (dose: 1.56 mg/kg/injection, schedule: Q01DX009 (ip), vehicle: saline) was 112 % of control and the T/C (dose: 6.25 mg/kg/injection, schedule: Q01DX009 (ip), vehicle: saline) was 91 % of control. For the same compound, the T/C (dose: 12.5 mg/kg/injection, schedule: Q01DX009 (ip), vehicle: saline) was 86 % of control, the T/C (dose: 100.0 mg/kg/injection, schedule: Q01DX009 (ip), vehicle: saline with Tween-80) was 117 % of control and the T/C (dose: 100.0 mg/kg/injection, schedule: Q01DX009 (ip), vehicle: saline) was 108 % of control.
